Measured values taken from US11191820B2, “Method for inducing early T memory response with short peptides anti-tumor vaccine” (OSE IMMUNOTHERAPEUTICS, priority 2015, dated 2021).

Columns and labels:
Type in all cases: in vivo, human
[1] = system: central memory T cells; assay: Central memory T cell cultured ELISPOT, phase 2 trial in advanced NSCLC
Method: CTL Immune responses measured though cultured Elispot. The immunogenicity was measured in Phase 2 clinical trial on cryopreserved PBMC from each test sample were thawed in 5% human culture medium (RPMI-1640 medium with 25 mM HEPES, supplemented with 5% human AB serum, 4 mM L-glutamine, 0.5 mM sodium pyruvate, 0.1 mM MEM non-essential amino acids, 100 μg/ml streptomycin, and 100 U/ml penicillin) containing 30 μg/ml DNAase. After centrifugation for 5 minutes at 1200 rpm, the cell pellets were resuspended in 5% human culture medium and washed 2 times. For the central Memory T cell cultured ELISPOT assay, 2×10^6/ml PBMC were placed in replicate wells in a 48-well plates and stimulated for 10 days with 10 μg/ml of each peptide. As a positive control, PBMC were also stimulated with a pool of recall viral peptides. Human rIL2 (10 U/ml) was added to the peptide-stimulated cultures at day 1, day 4 and day 7. After 10 days the stimulated cells were harvested and plated at a concentration of 5×10^4/well. Assay wells also received irradiated autologous PBMC (1×10^5/well) and 10 μg/ml peptide, either the vaccine peptide, irrelevant peptide or positive control peptides. Cells stimulated in vitro with each analog epitope were also tested against the corresponding wild-type epitope.
Data analysis and acceptance criteria. Mean and standard deviation (SD) of spots in replicate wells were calculated in all assays by transferring raw ELISPOT data from each experiment to an Excel-based computer program. Positive vaccine-induced T-cell responses were determined according to the criteria described below.
Acceptance Criteria for peptide-Induced specific T-cell response through central memory T cells: The positive criteria for CTL responses used in the phase 2 trial was identical to the criteria in the phase 1/2 trials which was established prospectively after analyzing the variability of pre-treatment responses in patients against each vaccine epitope and the irrelevant HBV control epitope. A positive peptide-induced CTL/T memory response to a given epitope met all of the following conditions: 1) was greater than 5 SFC above the irrelevant epitope response, 2) was greater than the mean SFC of the irrelevant epitope response, plus 2 SD, and 3) was two-fold greater than the SFC response in the pre-vaccination sample from the same patient, plus 2 SD. The inclusion of “plus two standard deviations” was used to accommodate the assay variability and served to increase the criteria stringency.

[2] = system: central memory T cells; assay: Cultured IFN-γ ELISPOT after 10-day in vitro stimulation of PBMC, phase 1/2 NSCLC trial of OSE-2101; parameters: key to net SFC of vaccine positive CTL responses: —, indicates SFC response did not meet criteria and vaccine response was negative; conditions: for No. Positive Responses / Mean SFC: 6 NSCLC patients
Method: (§1) Clinical study design. Both trials were designed as phase 1/2, open label, multi-center, single dose, multiple administration studies to evaluate the safety and immunogenicity of the OSE-2101 immunotherapy. Patients were treated with 1 ml OSE-2101 every 3 weeks for a total of six doses. Each dose was administered subcutaneously in the same vicinity in the deltoid or upper thigh region, or at a contralateral site if local side-effects were observed. The study duration for each completed patient was 18 weeks. Clinical responses or patient survival were not measured in either phase 1/2 studies.
(§2) Clinical sample processing. Blood or leukapheresis product was obtained from patients at the pre-treatment, the Week 9 and Week 18 time points, 3 weeks after the third and sixth dose of OSE-2101 respectively. Peripheral blood mononuclear cells (PBMC) were isolated from samples within 24 hours of collection using a FICOLL-PAQUE density gradient and cryopreserved in containers designed to ensure optimal freezing (Mr. Frosty, Nalgene). For use, cells were rapidly thawed at 37° C. then transferred to human AB serum-containing medium for work-up.
(§3) Measurement of central T memory cells responses and T effector memory cells. The CTL responses in 16 total patients (10 colon and six NSCLC) were monitored for CTL responses against each epitope and against the wild-type epitope of epitopes analogs. For each patient, the pre-treatment, Week 9 and Week 18 time points were batch-tested in the same experiment to allow pre- versus post-treatment response comparison in the same experiment. Central T memory cells responses were measured using an IFN-γ enzyme-linked immunospot (cultured ELISPOT) assay following in vitro stimulation of PBMC for 10 days with each vaccine epitope. Briefly, PBMC from each time point were stimulated on day 0 with 10 μg/ml of each epitope individually in replicate in 48-well culture plates (2×10^6 PBMC/well). All cultures were fed with rIL-2 (Endogen, Woburn, Mass.; 10 U/ml final concentration) on days 1, 4 and 7. Ten days after initiation of culture, cells were harvested and tested for activity against specific vaccine peptides and corresponding wild-type peptides of vaccine analogs in the T memory ELISPOT assay. Cells were tested in Millipore IP 96-well plates pre-coated with mouse anti-human IFN-γ antibody (Mabtech USA, Cincinnati, Ohio). Five×10^4 cells and 1.25×10^4 cells from each culture were plated in triplicate wells together with 10^5 irradiated autologous PBMC and 10 μg/ml peptide. As a control, CTL were also tested against an irrelevant HLA-A2.1-binding HBV peptide. After 20 hours incubation, T memory ELISPOT plates were developed by performing sequential incubations with biotinylated anti-human IFN-γ antibody (Mabtech USA), Avidin-Peroxidase Complex (APC, Vector Laboratories, Burlingame, Calif.), and 3-amino-9-ethyl carbazole (AEC) substrate (Sigma Aldrich, St. Louis, Mo.). Spot-forming cells (SFC) were enumerated using a computer-assisted image analysis system (Zeiss KS ELISPOT Reader, Carl Zeiss MicroImaging, Thornwood, N.J.). Data is reported as the net SFC per 5×10^4 cells after subtracting spots induced with the irrelevant HBV peptide.

[3] = system: central memory T cells; assay: Cultured IFN-γ ELISPOT after 10-day in vitro stimulation of PBMC, phase 1/2 colon cancer trial of OSE-2101; parameters: key to net SFC of vaccine positive CTL responses: —, indicates SFC response did not meet criteria and vaccine response was negative; conditions: for Mean SFC: 10 colon patients
Method: as §1, §2, §3

KVAEIVHFL [MAGE3.112I5 A]
% of patients with positive CTL/central memory T cell response ([1]; phase 2, month 9): 0%
patients with positive CTL/central memory T cell response / patients tested ([1]; phase 2, month 9): 0/7
% of patients with positive CTL/central memory T cell response ([1]; phase 2, month 12): 0%
patients with positive CTL/central memory T cell response / patients tested ([1]; phase 2, month 12): 0/4
% of patients with positive CTL/central memory T cell response ([1]; phase 2, week 9): 30%
patients with positive CTL/central memory T cell response / patients tested ([1]; phase 2, week 9): 10/33
% of patients with positive CTL/central memory T cell response ([1]; phase 2, week 18): 25%
patients with positive CTL/central memory T cell response / patients tested ([1]; phase 2, week 18): 8/32
% of patients with positive CTL/central memory T cell response ([1]; phase 2, week 30): 43%
patients with positive CTL/central memory T cell response / patients tested ([1]; phase 2, week 30): 10/23
No. Positive Responses ([2]; Week 9): 0
No. Positive Responses ([2]; Week 18): 0
net SFC of vaccine positive CTL responses ([2]; NSCLC patient 201, Week 9): —
net SFC of vaccine positive CTL responses ([2]; NSCLC patient 201, Week 18): —
net SFC of vaccine positive CTL responses ([2]; NSCLC patient 502, Week 9): —
net SFC of vaccine positive CTL responses ([2]; NSCLC patient 502, Week 18): —
net SFC of vaccine positive CTL responses ([2]; NSCLC patient 504, Week 9): —
net SFC of vaccine positive CTL responses ([2]; NSCLC patient 504, Week 18): —
net SFC of vaccine positive CTL responses ([2]; NSCLC patient 505, Week 9): —
net SFC of vaccine positive CTL responses ([2]; NSCLC patient 505, Week 18): —
net SFC of vaccine positive CTL responses ([2]; NSCLC patient 532, Week 9): —
net SFC of vaccine positive CTL responses ([2]; NSCLC patient 532, Week 18): —
net SFC of vaccine positive CTL responses ([2]; NSCLC patient 651, Week 9): —
net SFC of vaccine positive CTL responses ([2]; NSCLC patient 651, Week 18): —
Mean SFC ([3]; Week 9): 49.2 SFC per 50,000 cells
Mean SFC ([3]; Week 18): 77.8 SFC per 50,000 cells
net SFC of vaccine positive CTL responses ([3]; colon patient 551, Week 9): —
net SFC of vaccine positive CTL responses ([3]; colon patient 551, Week 18): 8.7 SFC per 50,000 cells
net SFC of vaccine positive CTL responses ([3]; colon patient 601, Week 9): 27.0 SFC per 50,000 cells
net SFC of vaccine positive CTL responses ([3]; colon patient 601, Week 18): —
net SFC of vaccine positive CTL responses ([3]; colon patient 602, Week 9): —
net SFC of vaccine positive CTL responses ([3]; colon patient 602, Week 18): —
net SFC of vaccine positive CTL responses ([3]; colon patient 603, Week 9): —
net SFC of vaccine positive CTL responses ([3]; colon patient 603, Week 18): 16.0 SFC per 50,000 cells
net SFC of vaccine positive CTL responses ([3]; colon patient 604, Week 9): 60.3 SFC per 50,000 cells
net SFC of vaccine positive CTL responses ([3]; colon patient 604, Week 18): 268.0 SFC per 50,000 cells
net SFC of vaccine positive CTL responses ([3]; colon patient 605, Week 9): —
net SFC of vaccine positive CTL responses ([3]; colon patient 605, Week 18): —
net SFC of vaccine positive CTL responses ([3]; colon patient 606, Week 9): —
net SFC of vaccine positive CTL responses ([3]; colon patient 606, Week 18): 18.7 SFC per 50,000 cells
net SFC of vaccine positive CTL responses ([3]; colon patient 607, Week 9): 60.3 SFC per 50,000 cells
net SFC of vaccine positive CTL responses ([3]; colon patient 607, Week 18): —
net SFC of vaccine positive CTL responses ([3]; colon patient 608, Week 9): —
net SFC of vaccine positive CTL responses ([3]; colon patient 608, Week 18): —
net SFC of vaccine positive CTL responses ([3]; colon patient 609, Week 9): —
net SFC of vaccine positive CTL responses ([3]; colon patient 609, Week 18): —

KVFGSLAFV [HER2.369L2V9 A]
% of patients with positive CTL/central memory T cell response ([1]; phase 2, month 9): 29%
patients with positive CTL/central memory T cell response / patients tested ([1]; phase 2, month 9): 2/7
% of patients with positive CTL/central memory T cell response ([1]; phase 2, month 12): 50%
patients with positive CTL/central memory T cell response / patients tested ([1]; phase 2, month 12): 2/4
% of patients with positive CTL/central memory T cell response ([1]; phase 2, week 9): 42%
patients with positive CTL/central memory T cell response / patients tested ([1]; phase 2, week 9): 14/33
% of patients with positive CTL/central memory T cell response ([1]; phase 2, week 18): 44%
patients with positive CTL/central memory T cell response / patients tested ([1]; phase 2, week 18): 14/32
% of patients with positive CTL/central memory T cell response ([1]; phase 2, week 30): 57%
patients with positive CTL/central memory T cell response / patients tested ([1]; phase 2, week 30): 13/23
Mean SFC ([2]; Week 9): 84.3 SFC per 50,000 cells
No. Positive Responses ([2]; Week 9): 1
Mean SFC ([2]; Week 18): 109.3 SFC per 50,000 cells
No. Positive Responses ([2]; Week 18): 4
net SFC of vaccine positive CTL responses ([2]; NSCLC patient 201, Week 9): —
net SFC of vaccine positive CTL responses ([2]; NSCLC patient 201, Week 18): —
net SFC of vaccine positive CTL responses ([2]; NSCLC patient 502, Week 9): —
net SFC of vaccine positive CTL responses ([2]; NSCLC patient 502, Week 18): —
net SFC of vaccine positive CTL responses ([2]; NSCLC patient 504, Week 9): 84.3 SFC per 50,000 cells
net SFC of vaccine positive CTL responses ([2]; NSCLC patient 504, Week 18): 284.0 SFC per 50,000 cells
net SFC of vaccine positive CTL responses ([2]; NSCLC patient 505, Week 9): —
net SFC of vaccine positive CTL responses ([2]; NSCLC patient 505, Week 18): 53.0 SFC per 50,000 cells
net SFC of vaccine positive CTL responses ([2]; NSCLC patient 532, Week 9): —
net SFC of vaccine positive CTL responses ([2]; NSCLC patient 532, Week 18): 78.3 SFC per 50,000 cells
net SFC of vaccine positive CTL responses ([2]; NSCLC patient 651, Week 9): —
net SFC of vaccine positive CTL responses ([2]; NSCLC patient 651, Week 18): 22.0 SFC per 50,000 cells
Mean SFC ([3]; Week 9): 120.8 SFC per 50,000 cells
Mean SFC ([3]; Week 18): 315.7 SFC per 50,000 cells
net SFC of vaccine positive CTL responses ([3]; colon patient 551, Week 9): 134.7 SFC per 50,000 cells
net SFC of vaccine positive CTL responses ([3]; colon patient 551, Week 18): 80.7 SFC per 50,000 cells
net SFC of vaccine positive CTL responses ([3]; colon patient 601, Week 9): 112.7 SFC per 50,000 cells
net SFC of vaccine positive CTL responses ([3]; colon patient 601, Week 18): 52.3 SFC per 50,000 cells
net SFC of vaccine positive CTL responses ([3]; colon patient 602, Week 9): —
net SFC of vaccine positive CTL responses ([3]; colon patient 602, Week 18): —
net SFC of vaccine positive CTL responses ([3]; colon patient 603, Week 9): 30.0 SFC per 50,000 cells
net SFC of vaccine positive CTL responses ([3]; colon patient 603, Week 18): —
net SFC of vaccine positive CTL responses ([3]; colon patient 604, Week 9): 88.3 SFC per 50,000 cells
net SFC of vaccine positive CTL responses ([3]; colon patient 604, Week 18): 314.7 SFC per 50,000 cells
net SFC of vaccine positive CTL responses ([3]; colon patient 605, Week 9): 32.7 SFC per 50,000 cells
net SFC of vaccine positive CTL responses ([3]; colon patient 605, Week 18): 33.7 SFC per 50,000 cells
net SFC of vaccine positive CTL responses ([3]; colon patient 606, Week 9): —
net SFC of vaccine positive CTL responses ([3]; colon patient 606, Week 18): 71.0 SFC per 50,000 cells
net SFC of vaccine positive CTL responses ([3]; colon patient 607, Week 9): 389.3 SFC per 50,000 cells
net SFC of vaccine positive CTL responses ([3]; colon patient 607, Week 18): 1642.7 SFC per 50,000 cells
net SFC of vaccine positive CTL responses ([3]; colon patient 608, Week 9): —
net SFC of vaccine positive CTL responses ([3]; colon patient 608, Week 18): —
net SFC of vaccine positive CTL responses ([3]; colon patient 609, Week 9): 58.0 SFC per 50,000 cells
net SFC of vaccine positive CTL responses ([3]; colon patient 609, Week 18): 14.7 SFC per 50,000 cells
